# Source: PubChem BioAssay (NCI)
#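 Compound exposure: 48 hours, 5 concentrations, 96-well plates. Here, GI50 denotes the concentration required for 50% inhibition of growth. TGI: total growth inhibition.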
# Legend:
# Experiment in all cases: DTP human tumour cell line panel, 48 h
# [1] = test system: SF-539 CNS
# [2] = test system: CAKI-1 renal
# [3] = test system: NCI-H522 lung
# [4] = test system: 786-0 renal
# [5] = test system: HOP-62 NSCLC
# [6] = test system: SK-MEL-28 melanoma
# [7] = test system: IGROV1 ovarian
# [8] = test system: EKVX NSCLC
# [9] = test system: TK-10 renal
# [10] = test system: SK-MEL-2 melanoma
# [11] = test system: LOX IMVI melanoma
# [12] = test system: HCT-116 colon
# [13] = test system: MCF7 breast
# [14] = test system: UO-31 renal
# [15] = test system: OVCAR-4 ovarian
# [16] = test system: COLO 205 colon
# [17] = test system: SF-268 CNS
# [18] = test system: DU-145 prostate
# [19] = test system: U251 CNS
# [20] = test system: ACHN renal
# [21] = test system: UACC-257 melanoma
# [22] = test system: HCT-15 colon
# [23] = test system: MDA-MB-231 breast
# [24] = test system: RXF 393 renal
# [25] = test system: KM12 colon
# [26] = test system: HL-60(TB) leukemia
# [27] = test system: OVCAR-5 ovarian
# [28] = test system: SNB-75 CNS
# [29] = test system: SK-OV-3 ovarian
# [30] = test system: HOP-92 NSCLC
# [31] = test system: NCI-H23 lung
# [32] = test system: T-47D breast
# [33] = test system: SW-620 colon
# [34] = test system: SN12C renal
# [35] = test system: MALME-3M melanoma
# [36] = test system: NCI-H460 lung
# [37] = test system: PC-3 prostate
# [38] = test system: SF-295 CNS
# [39] = test system: SNB-19 CNS
# [40] = test system: MOLT-4 leukemia
# [41] = test system: A549 NSCLC
# [42] = test system: M14 melanoma
# [43] = test system: A498 renal
# [44] = test system: MDA-MB-435
# [45] = test system: K-562 leukemia
# [46] = test system: BT-549 breast
# [47] = test system: OVCAR-8 ovarian
# [48] = test system: NCI-H226 lung
# [49] = test system: HT29 colon
# [50] = test system: SK-MEL-5 melanoma
# [51] = test system: UACC-62 melanoma
# [52] = test system: HS 578T breast
# [53] = test system: RPMI-8226 leukemia
# [54] = test system: NCI/ADR-RES ovarian
# [55] = test system: OVCAR-3 ovarian
# [56] = test system: HCC-2998 colon
# [57] = test system: CCRF-CEM leukemia
compound,measurement,setting,value
COc1cc2c(/C=C3/C(=O)Nc4ccc(O)cc43)c(Cl)[nH]c2cc1C,TGI,[1],0.185 µM
same,TGI,[2],3.19 µM
same,TGI,[3],19.5 µM
same,TGI,[4],16.7 µM
same,TGI,[5],4.55 µM
same,TGI,[6],0.0526 µM
same,TGI,[7],20.5 µM
same,TGI,[8],26.8 µM
same,TGI,[9],26.1 µM
same,TGI,[10],29.2 µM
same,TGI,[11],11.9 µM
same,TGI,[12],6.61 µM
same,TGI,[13],> 100 µM
same,TGI,[14],21.1 µM
same,TGI,[15],3.38 µM
same,TGI,[16],0.894 µM
same,TGI,[17],26.4 µM
same,TGI,[18],7.55 µM
same,TGI,[19],2.99 µM
same,TGI,[20],1.64 µM
same,TGI,[21],21.9 µM
same,TGI,[22],1.17 µM
same,TGI,[23],4.25 µM
same,TGI,[24],30.5 µM
same,TGI,[25],5.35 µM
same,TGI,[26],4.08 µM
same,TGI,[27],30.8 µM
same,TGI,[28],20 µM
same,TGI,[29],2.48 µM
same,TGI,[30],42.6 µM
same,TGI,[31],3.78 µM
same,TGI,[32],7.85 µM
same,TGI,[33],20 µM
same,TGI,[34],3.06 µM
same,TGI,[35],1.38 µM
same,TGI,[36],19.2 µM
same,TGI,[37],22.2 µM
same,TGI,[38],13.5 µM
same,TGI,[39],22.3 µM
same,TGI,[40],0.387 µM
same,TGI,[41],32.9 µM
same,TGI,[42],2.02 µM
same,TGI,[43],24.6 µM
same,TGI,[44],0.0441 µM
same,TGI,[45],16 µM
same,TGI,[46],3.84 µM
same,TGI,[47],7.77 µM
same,TGI,[48],3.77 µM
same,TGI,[49],5.42 µM
same,TGI,[50],3.29 µM
same,TGI,[51],3.08 µM
same,TGI,[52],28.5 µM
same,TGI,[53],1.34 µM
COc1ccc(C(=O)n2nc(/C=C/c3ccc(O)c(OC)c3)cc2/C=C/c2ccc(O)c(OC)c2)cc1,GI50,[1],0.365 µM
same,TGI,[1],2.21 µM
same,GI50,[2],0.452 µM
same,TGI,[2],15.3 µM
same,GI50,[3],0.267 µM
same,TGI,[3],0.785 µM
same,GI50,[4],0.445 µM
same,TGI,[4],1.84 µM
same,GI50,[54],0.492 µM
same,TGI,[54],10.5 µM
same,GI50,[6],0.602 µM
same,TGI,[6],7.45 µM
same,GI50,[9],1.91 µM
same,TGI,[9],6.66 µM
same,GI50,[10],0.36 µM
same,TGI,[10],0.934 µM
same,GI50,[11],0.467 µM
same,TGI,[11],3.15 µM
same,GI50,[12],0.362 µM
same,TGI,[12],2.69 µM
same,GI50,[13],0.303 µM
same,TGI,[13],1.57 µM
same,GI50,[14],0.393 µM
same,TGI,[14],3.2 µM
same,GI50,[15],0.695 µM
same,TGI,[15],5.44 µM
same,GI50,[17],0.476 µM
same,TGI,[17],8.42 µM
same,GI50,[18],0.668 µM
same,TGI,[18],4.56 µM
same,GI50,[19],0.597 µM
same,TGI,[19],10.9 µM
same,GI50,[20],0.388 µM
same,TGI,[20],17.2 µM
same,GI50,[21],2.03 µM
same,TGI,[21],12.1 µM
same,GI50,[22],0.338 µM
same,TGI,[22],5.96 µM
same,GI50,[23],0.575 µM
same,TGI,[23],22.6 µM
same,GI50,[55],0.449 µM
same,TGI,[55],2.28 µM
same,GI50,[25],0.387 µM
same,TGI,[25],18.1 µM
same,GI50,[27],2.61 µM
same,TGI,[27],> 100 µM
same,GI50,[28],0.395 µM
same,TGI,[28],1.64 µM
same,GI50,[29],0.465 µM
same,TGI,[29],1.8 µM
same,GI50,[30],0.609 µM
same,TGI,[30],4.88 µM
same,GI50,[31],0.84 µM
same,TGI,[31],4.69 µM
same,GI50,[32],0.737 µM
same,TGI,[32],3.95 µM
same,GI50,[33],0.455 µM
same,TGI,[33],11.9 µM
same,GI50,[34],0.635 µM
same,TGI,[34],19.3 µM
same,GI50,[35],0.556 µM
same,TGI,[35],3.59 µM
same,GI50,[36],0.37 µM
same,TGI,[36],13.3 µM
same,GI50,[37],0.496 µM
same,TGI,[37],3.78 µM
same,GI50,[38],1.64 µM
same,TGI,[38],6.28 µM
same,GI50,[39],1.09 µM
same,TGI,[39],18.8 µM
same,GI50,[41],1.37 µM
same,TGI,[41],14 µM
same,GI50,[42],0.328 µM
same,TGI,[42],1.32 µM
same,GI50,[56],2.16 µM
same,TGI,[56],9.19 µM
same,GI50,[43],2.25 µM
same,TGI,[43],7.26 µM
same,GI50,[45],0.404 µM
same,TGI,[45],> 100 µM
same,GI50,[46],0.466 µM
same,TGI,[46],2.32 µM
same,GI50,[47],0.86 µM
same,TGI,[47],13.1 µM
same,GI50,[48],2.06 µM
same,TGI,[48],8.52 µM
same,GI50,[49],0.482 µM
same,TGI,[49],2.24 µM
same,GI50,[57],0.304 µM
same,TGI,[57],> 100 µM
Cc1cc(C(=O)NC(C)(C)C)cc(C#Cc2ccc3c4c(oc3c2)C(C)(C)c2cc(NS(C)(=O)=O)ccc2C4=O)n1,GI50,[2],2.51 µM
same,TGI,[2],> 100 µM
same,GI50,[3],4.54 µM
same,TGI,[3],> 100 µM
same,GI50,[4],1.7 µM
same,TGI,[4],12.5 µM
same,GI50,[54],2.86 µM
same,TGI,[54],> 100 µM
same,GI50,[5],2.31 µM
same,TGI,[5],> 100 µM
same,GI50,[6],1.93 µM
same,TGI,[6],> 100 µM
same,GI50,[7],2.59 µM
same,TGI,[7],> 100 µM
same,GI50,[8],4.98 µM
same,TGI,[8],> 100 µM
same,GI50,[9],3.99 µM
same,TGI,[9],> 100 µM
same,GI50,[10],1.98 µM
same,TGI,[10],7.87 µM
same,GI50,[11],2.59 µM
same,TGI,[11],> 100 µM
same,GI50,[12],1.69 µM
same,TGI,[12],> 100 µM
same,GI50,[13],1.76 µM
same,TGI,[13],> 100 µM
same,GI50,[14],1.2 µM
same,TGI,[14],> 100 µM
same,GI50,[15],3.2 µM
same,TGI,[15],> 100 µM
same,GI50,[16],1.34 µM
same,TGI,[16],5.5 µM
same,GI50,[17],3.34 µM
same,TGI,[17],> 100 µM
same,GI50,[18],3.17 µM
same,TGI,[18],> 100 µM
same,GI50,[19],3.1 µM
same,TGI,[19],> 100 µM
same,GI50,[20],1.78 µM
same,TGI,[20],> 100 µM
same,GI50,[22],1.93 µM
same,TGI,[22],> 100 µM
same,GI50,[23],3.49 µM
same,TGI,[23],> 100 µM
same,GI50,[55],2.82 µM
same,TGI,[55],31.8 µM
same,GI50,[24],0.535 µM
same,TGI,[24],3.34 µM
same,TGI,[25],40.7 µM
same,GI50,[27],1.33 µM
same,TGI,[27],> 100 µM
same,GI50,[28],1.22 µM
same,TGI,[28],22.4 µM
same,GI50,[30],0.102 µM
same,TGI,[30],2.44 µM
same,GI50,[31],2.63 µM
same,TGI,[31],> 100 µM
same,GI50,[32],2.41 µM
same,TGI,[32],> 100 µM
same,GI50,[33],1.03 µM
same,TGI,[33],> 100 µM
same,GI50,[34],1.95 µM
same,TGI,[34],> 100 µM
same,GI50,[35],1.53 µM
same,TGI,[35],> 100 µM
same,GI50,[36],2.31 µM
same,TGI,[36],> 100 µM
same,GI50,[37],2.96 µM
same,TGI,[37],> 100 µM
same,GI50,[38],2.12 µM
same,TGI,[38],5.64 µM
same,GI50,[39],3.23 µM
same,TGI,[39],> 100 µM
same,GI50,[40],2.39 µM
same,TGI,[40],> 100 µM
same,GI50,[41],3.01 µM
same,TGI,[41],> 100 µM
same,GI50,[42],1.26 µM
same,TGI,[42],18.6 µM
same,GI50,[56],3.06 µM
same,TGI,[56],> 100 µM
same,GI50,[43],2.1 µM
same,TGI,[43],> 100 µM
same,GI50,[44],0.518 µM
same,TGI,[44],21.1 µM
same,GI50,[45],2.31 µM
same,TGI,[45],> 100 µM
same,GI50,[46],1.26 µM
same,TGI,[46],8.1 µM
same,GI50,[47],3.09 µM
same,TGI,[47],> 100 µM
same,GI50,[49],1.2 µM
same,TGI,[49],> 100 µM
same,GI50,[50],1.84 µM
same,TGI,[50],5.31 µM
same,GI50,[51],1.4 µM
same,TGI,[51],> 100 µM
same,GI50,[57],2.12 µM
same,TGI,[57],> 100 µM
same,GI50,[53],1.11 µM
same,TGI,[53],4.67 µM
